Experimental data: patent publication US12064514B2, “Ultrasound-sensitive peptide particles for spatially resolved molecule delivery” (The Penn State Research Foundation, priority 2017, dated 2024)

Columns and labels:
[1] = tested on: green fluorescent protein (GFP); experiment: screening of fluorine-containing cargo solubilizing agents for GFP dispersion in perfluorocarbon; conditions: for GFP dispersion efficiency: in PFH, after resuspension in aqueous buffer
Procedure: For each condition, 200 ul of compounds+PFH was aliquoted into an Eppendorf tube containing individually dried GFP stocks (1 uM) for 9 replicates. Each tube was parafilmed, vortexed, placed on VWR tube rotator overnight at 4° C., and then centrifuged for 5 min at 4000 rpm. Next, 100 ul of each sample was aliquoted onto a black bottom 96-well plate for fluorescence scan from 500 to 560. The 96-well plate was then placed in 37° C. overnight to dry the PFH. The dry samples were resuspended in 100 ul PBS and scanned for fluorescence using BioTek Cytation 3 imaging reader. […] Here, PFH is used as a surrogate for the penultimate solvent perfluoro-n-pentane (PFP) used to form the peptisome core, as PFP has a low boiling point and low surface tension, making it difficult to use in these screening experiments.
Fluorine-containing cargo solubilizing agent #6 (perfluorononanoic acid, PNFA) was dissolved at various concentrations in PFH to achieve molar ratios with GFP at 400:1 to 50,000:1 fluorine-containing cargo solubilizing agent-to-GFP. For this molar ratio screening, PFNA was vortexed and sonicated to dissolve into PFH at 0.4, 2, 50, and 100 mM. For each condition, 200 ul of PFNA+PFH was aliquoted into an Eppendorf tube containing individually dried GFP (1 uM) for 9 replicates. Each tube was parafilmed, vortexed, placed on VWR tube rotator overnight at 4° C., and then centrifuged for 5 min at 4000 rpm. Next, 100 ul of each sample was aliquoted onto a black bottom 96-well plate for fluorescence scan from 500 to 560. The 96-well plate was then placed in 37° C. overnight to dry the PFH. The dry samples were resuspended in 100 ul PBS and scanned for fluorescence using BioTek Cytation 3 imaging reader.
For PFH and PFP solvent comparison, 2 mM PFNA was vortexed and sonicated to dissolve into either PFH or PFP on ice. For each condition, 200 ul of adjuvant/PFH or adjuvant/PFP was aliquoted into an Eppendorf tube containing individually dried GFP stocks (1 uM) for 3 replicates. Each tube was parafilmed, vortexed, placed on VWR tube rotator overnight at 4° C., and then centrifuged for 5 min at 4000 rpm. Next, 100 ul of each sample was aliquoted onto a black bottom 96-well plate for fluorescence scan from 500 to 560. The 96-well plate was then placed in 37° C. overnight to dry the PFH and PFP.

[2] = biological target: αVβ3 integrin (Homo sapiens, UniProt P05106+P06756); conditions: read-out: binding affinity to αVβ3 integrin (IC50, conc. at which 50% of receptor is bound by ligand); cited from earlier work
Sequence of αVβ3 integrin (P06756 31-1048): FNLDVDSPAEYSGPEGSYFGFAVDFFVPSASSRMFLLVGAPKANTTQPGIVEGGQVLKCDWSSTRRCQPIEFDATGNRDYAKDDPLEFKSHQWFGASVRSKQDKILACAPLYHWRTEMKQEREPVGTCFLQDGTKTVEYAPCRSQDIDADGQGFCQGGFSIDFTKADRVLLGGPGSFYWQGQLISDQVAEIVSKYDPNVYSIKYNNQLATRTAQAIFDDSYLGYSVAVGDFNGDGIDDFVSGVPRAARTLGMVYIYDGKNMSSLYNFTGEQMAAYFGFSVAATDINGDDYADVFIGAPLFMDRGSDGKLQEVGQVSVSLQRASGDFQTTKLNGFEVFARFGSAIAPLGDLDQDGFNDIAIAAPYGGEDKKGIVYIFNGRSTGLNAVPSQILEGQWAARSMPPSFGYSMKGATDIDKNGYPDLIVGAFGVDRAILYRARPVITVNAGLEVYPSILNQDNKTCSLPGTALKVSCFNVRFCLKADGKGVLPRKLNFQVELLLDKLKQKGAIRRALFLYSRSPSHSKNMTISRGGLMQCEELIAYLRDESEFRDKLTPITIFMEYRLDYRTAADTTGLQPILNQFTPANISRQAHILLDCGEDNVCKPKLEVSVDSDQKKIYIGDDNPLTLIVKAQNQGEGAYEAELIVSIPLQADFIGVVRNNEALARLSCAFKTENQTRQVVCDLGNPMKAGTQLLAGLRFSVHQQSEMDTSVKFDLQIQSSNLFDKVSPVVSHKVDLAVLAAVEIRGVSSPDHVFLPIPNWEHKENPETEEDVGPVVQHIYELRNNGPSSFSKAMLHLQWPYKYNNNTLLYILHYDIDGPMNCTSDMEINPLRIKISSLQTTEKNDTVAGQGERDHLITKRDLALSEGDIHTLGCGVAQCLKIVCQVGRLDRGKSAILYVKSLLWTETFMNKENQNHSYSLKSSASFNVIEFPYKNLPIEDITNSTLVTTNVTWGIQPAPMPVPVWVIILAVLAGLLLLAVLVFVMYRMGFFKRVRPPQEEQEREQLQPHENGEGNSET
Sequence of αVβ3 integrin (P05106 27-788): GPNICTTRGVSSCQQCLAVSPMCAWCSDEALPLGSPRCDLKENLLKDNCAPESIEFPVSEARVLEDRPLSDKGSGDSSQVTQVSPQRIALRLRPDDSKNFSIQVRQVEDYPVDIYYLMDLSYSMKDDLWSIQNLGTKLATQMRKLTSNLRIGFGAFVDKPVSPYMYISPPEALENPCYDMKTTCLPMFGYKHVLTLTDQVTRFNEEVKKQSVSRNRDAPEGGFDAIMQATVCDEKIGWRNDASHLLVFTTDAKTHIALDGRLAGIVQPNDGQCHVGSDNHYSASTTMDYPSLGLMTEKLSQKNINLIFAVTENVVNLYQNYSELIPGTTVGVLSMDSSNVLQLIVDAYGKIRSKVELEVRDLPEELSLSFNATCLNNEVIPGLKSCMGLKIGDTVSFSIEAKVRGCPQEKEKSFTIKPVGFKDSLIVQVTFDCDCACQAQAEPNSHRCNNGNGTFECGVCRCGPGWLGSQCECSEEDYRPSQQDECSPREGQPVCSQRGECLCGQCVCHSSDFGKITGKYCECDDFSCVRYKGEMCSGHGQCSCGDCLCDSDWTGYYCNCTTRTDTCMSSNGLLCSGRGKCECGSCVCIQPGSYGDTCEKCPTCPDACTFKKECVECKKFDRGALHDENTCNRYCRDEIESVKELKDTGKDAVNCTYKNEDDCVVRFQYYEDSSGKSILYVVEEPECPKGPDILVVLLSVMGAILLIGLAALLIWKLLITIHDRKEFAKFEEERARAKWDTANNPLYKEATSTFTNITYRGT

Compound	GFP dispersion efficiency [1]	IC50 [2]	further results
FC(F)(F)C(F)(F)C(F)(F)C(F)(F)C(F)(F)C(F)(F)C(F)(F)C(F)(F)C(F)(F)C(F)(F)C(F)(F)C(F)(F)C(F)(F)C(F)(F)F [Compound 2, perfluoroteradecane]	5.1%		
O=C(O)C(F)(F)C(F)(F)C(F)(F)C(F)(F)F [Compound 5, perfluoropentanoic acid]	4.3%		
O=C(O)C(F)(F)C(F)(F)C(F)(F)C(F)(F)C(F)(F)C(F)(F)C(F)(F)C(F)(F)F [Compound 6, perfluorononanoic acid]	39.3%		protein dispersed within PFH compared to compound 5 [1]: approximately 10 fold; protein dispersion with PFP compared to PFH ([1]; 2000:1 molar ratio): no significant difference; total GFP loading efficiency into PFH ([1]; molar ratios of 2,000 to 10,000:1 agent-to-GFP): ~63%
GRGD		55 ± 7 nM	
GRGDNP		45 ± 12 nM	
GRGDS		28 ± 3 nM	
GRGDSPK		12.2 ± 0.1 nM	
GRGDTP		28 ± 5 nM	
RGD		89 ± 12 nM	
RGDS		45 ± 5 nM	
